We go through 4 compounds from patent US8748457B2, “2-amino-2- [8-(dimethyl carbamoyl)- 8-aza- bicyclo [3.2.1] oct-3-yl]-exo- ethanoyl derivatives as potent DPP-IV inhibitors” (Lupin Limited, priority 2009, dated 2014).

In one data set the target is T1, human recombinant DPP-IV (Homo sapiens, UniProt P27487).
T1 construct: purchased R&D Systems, USA
In words: Inhibition of human recombinant DPP-IV (Gly-Pro-AMC fluorometric assay). Type of data set: biochemical. The procedure:
Inhibition of Human Recombinant DPP-IV
The proteolytic activity of human recombinant DPP-IV was determined by following the hydrolysis of Gly-Pro-7-amino-4-methylcoumarin (Gly-Pro-AMC) and the fluorometric quantitation of the liberated AMC. Assays were routinely carried out in 96-well flat-bottom black microwell plates. The reaction mixture (100 μl) contained 10 ng of human recombinant DPP-IV enzyme (produced in-house or procured from R&D Systems, USA) in the assay buffer (25 mM Tris-HCl, pH 7.4, 140 mM NaCl, 10 mM KCl and 0.1 mg/ml BSA) and 50 μM Gly-Pro-AMC. After incubation of assay plates at 30° C. for 30 min, the hydrolysis of Gly-Pro-AMC was monitored in a fluorescence microplate reader (Molecular Devices SpectraMax M5), with excitation and emission wavelengths set at 360 nm and 460 nm, respectively.
The inhibition of DPP-IV activity by test compounds was routinely performed by preincubating the enzyme with test compound (10 and 100 nM for primary screening and 8 concentrations from 0.1 to 1000 nM for the dose-response study) or vehicle (0.01% DMSO) for 15 min at 30° C., in a total volume of 90 μl. Test compounds were dissolved in DMSO at a concentration of 10 mM and serially diluted further in assay buffer. The enzyme reaction was initiated by the addition of Gly-Pro-AMC, followed by incubation of assay plates for 30 min at 30° C. and the liberated AMC was measured as described above. A known inhibitor of DPP-IV (positive control) was always included in the assay. Test compounds at various concentrations were always evaluated in duplicate, along with substrate blanks, vehicle controls and positive controls.
The results are expressed as percent inhibition of the enzyme activity relative to vehicle controls. Dose-response studies were conducted for those compounds exerting ≧50% inhibition of activity at 10 nM in primary screening. IC50, defined as the inhibitor concentration which caused a 50% decrease of the activity under assay conditions, was computed using GraphPad Prism software, version 5.0. […]

A further data set concerns the target T2, plasma DPP-IV (Canis lupus familiaris, UniProt A0A8I3Q2I8).
T2 construct: from tissue; host or cells: EDTA-plasma of male Beagle dogs after oral dosing (ex vivo)
In words: Measurement of plasma DPP-IV activity in Beagle dogs. Type of data set: in vivo. The conditions noted are these: dog, male Beagle dogs, single oral dose 3 mg/kg p.o. As for the experimental part: A. Measurement of Plasma DPP-IV Activity in Beagle Dogs
Overnight-fasted male animals were administered either vehicle or single oral dose of compound. Blood samples were collected prior to dosing and for 12 hours post dose into tubes containing EDTA. EDTA-plasma was separated and DPP-IV activity was measured using a fluorometric assay. Assays were carried out in 96-well flat-bottom black microwell plates. A typical reaction contained 25 μl plasma, 50 μl of 50 μM substrate (Gly-Pro-AMC) and 25 μl assay buffer (25 mM Tris-HCl, pH 7.4, 140 mM NaCl, 10 mM KCl and 1% BSA) in a total reaction volume of 100 μl. Plasma samples were incubated with the substrate for 30 min at 30° C., following which the fluorescence was measured in a microplate fluorescence reader (POLARstar Galaxy), with excitation and emission wavelengths set at 360 nm and 460 nm, respectively. Percent inhibition in plasma DPP-IV activity due to compounds was calculated by comparing with plasma from vehicle-treated animals.

Each structure is given as a SMILES string. Counter-ions that a name gives are not always drawn. Like-named read-outs stand apart in the source and are kept apart here.

Usually melting point stands for the temperature of the solid-liquid transition. What is called inhibition is the relative decrease from the control value, in per cent. In general, IC50 refers to the midpoint of a concentration-inhibition curve.

T2 sequence (A0A8I3Q2I8 1-765): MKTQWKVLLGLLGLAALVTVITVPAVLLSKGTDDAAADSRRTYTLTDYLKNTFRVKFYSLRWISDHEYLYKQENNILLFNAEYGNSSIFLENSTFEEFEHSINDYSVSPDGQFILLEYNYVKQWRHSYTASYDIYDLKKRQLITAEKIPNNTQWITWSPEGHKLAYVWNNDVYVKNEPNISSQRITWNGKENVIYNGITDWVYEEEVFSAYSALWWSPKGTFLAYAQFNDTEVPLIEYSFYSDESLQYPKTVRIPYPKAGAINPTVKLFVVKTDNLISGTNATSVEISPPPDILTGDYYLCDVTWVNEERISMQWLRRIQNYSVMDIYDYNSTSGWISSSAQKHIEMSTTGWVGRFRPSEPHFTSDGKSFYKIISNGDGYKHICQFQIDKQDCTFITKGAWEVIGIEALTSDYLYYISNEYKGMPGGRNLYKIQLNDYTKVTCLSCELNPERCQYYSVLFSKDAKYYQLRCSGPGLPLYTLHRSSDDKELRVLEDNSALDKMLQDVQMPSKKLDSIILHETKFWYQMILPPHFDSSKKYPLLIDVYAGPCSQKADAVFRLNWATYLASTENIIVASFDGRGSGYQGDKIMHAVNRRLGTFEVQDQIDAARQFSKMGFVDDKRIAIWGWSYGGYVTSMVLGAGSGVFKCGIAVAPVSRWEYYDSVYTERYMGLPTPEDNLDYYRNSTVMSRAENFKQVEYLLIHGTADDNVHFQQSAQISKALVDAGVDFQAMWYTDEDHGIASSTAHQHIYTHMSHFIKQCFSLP
T1 sequence (P27487 whole entry): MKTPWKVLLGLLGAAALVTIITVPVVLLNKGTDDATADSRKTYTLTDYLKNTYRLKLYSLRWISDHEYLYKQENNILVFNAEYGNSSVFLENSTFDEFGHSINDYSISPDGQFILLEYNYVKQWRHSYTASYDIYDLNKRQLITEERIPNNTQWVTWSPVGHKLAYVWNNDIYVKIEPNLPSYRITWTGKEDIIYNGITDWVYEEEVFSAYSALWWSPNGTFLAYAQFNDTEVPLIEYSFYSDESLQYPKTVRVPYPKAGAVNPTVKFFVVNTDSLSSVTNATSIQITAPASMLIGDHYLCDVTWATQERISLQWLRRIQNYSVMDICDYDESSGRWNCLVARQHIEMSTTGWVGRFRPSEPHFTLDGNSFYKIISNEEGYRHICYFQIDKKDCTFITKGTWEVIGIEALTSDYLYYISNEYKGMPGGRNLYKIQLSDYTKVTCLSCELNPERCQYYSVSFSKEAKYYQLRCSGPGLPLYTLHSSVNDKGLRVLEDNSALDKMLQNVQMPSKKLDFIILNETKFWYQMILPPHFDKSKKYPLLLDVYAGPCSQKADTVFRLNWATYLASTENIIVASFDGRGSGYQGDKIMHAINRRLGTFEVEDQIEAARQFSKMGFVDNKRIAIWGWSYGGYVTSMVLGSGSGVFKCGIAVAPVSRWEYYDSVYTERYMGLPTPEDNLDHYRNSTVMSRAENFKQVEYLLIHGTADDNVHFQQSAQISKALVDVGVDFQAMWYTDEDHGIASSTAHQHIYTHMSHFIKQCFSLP

For `CN(C)C(=O)N1C2CCC1CC([C@H](N)C(=O)N1[C@H](C#N)C[C@@H]3C[C@@H]31)C2` (stereo partly drawn) (as salt: salt) [Compound 1, (1S,3S,5S)-2-{(2S)-2-Amino-2-[8-(dimethylcarbamoyl)-8-aza-bicyclo[3.2.1]-oct-3-yl]-exo-ethanoyl}-2-azabicyclo[3.1.0]-hexane-3-carbonitrile trifluoro acetic acid salt], the melting point was 178 to 180 °C.

Compound `C#C[C@H]1CC[C@@H](C#N)N1C(=O)[C@@H](N)C1CC2CCC(C1)N2C(=O)N(C)C` (stereo partly drawn) (as salt: salt) [Compound 2, (2S,5R)-1-{(2S)-2-Amino-2-[8-(dimethylcarbamoyl)-8-aza-bicyclo[3.2.1]oct-3-yl]-exo-ethanoyl}-5-ethynyl-pyrrolidin-2-carbonitrile trifluoro acetic acid salt] gave a melting point of 165 to 167 °C.

Turning to `CN(C)C(=O)N1C2CCC1CC([C@H](N)C(=O)N1[C@H](C#N)C[C@@H]3C[C@@H]31)C2` (stereo partly drawn) [Compound 1, (1S,3S,5S)-2-{(2S)-2-Amino-2-[8-(dimethylcarbamoyl)-8-aza-bicyclo[3.2.1]-oct-3-yl]-exo-ethanoyl}-2-azabicyclo[3.1.0]-hexane-3-carbonitrile trifluoro acetic acid salt], the inhibition at 0.01 µM at human recombinant DPP-IV (compound at 10 nM (primary screening)) was 69%. Further, the inhibition at 0.1 µM at human recombinant DPP-IV (compound at 100 nM (primary screening)) is 94.8%.

As to `C#C[C@H]1CC[C@@H](C#N)N1C(=O)[C@@H](N)C1CC2CCC(C1)N2C(=O)N(C)C` (stereo partly drawn) [Compound 2, (2S,5R)-1-{(2S)-2-Amino-2-[8-(dimethylcarbamoyl)-8-aza-bicyclo[3.2.1]oct-3-yl]-exo-ethanoyl}-5-ethynyl-pyrrolidin-2-carbonitrile trifluoro acetic acid salt], the IC50 at human recombinant DPP-IV (50 μM Gly-Pro-AMC, 15 min preincubation, 30 min at 30° C.) was found to be 3.3 nM. Moreover, the inhibition at 3 mg/kg at plasma DPP-IV (0.5 h post dose, read-out: Plasma DPP-IV Inhibition (%) 0.5 h) came to 91%; at plasma DPP-IV (1 h post dose, read-out: Plasma DPP-IV Inhibition (%) 1 h) it was 85%; on plasma DPP-IV (2 h post dose, read-out: Plasma DPP-IV Inhibition (%) 2 h), 92%; on plasma DPP-IV (3 h post dose, read-out: Plasma DPP-IV Inhibition (%) 3 h) it was 90%; at plasma DPP-IV (4 h post dose, read-out: Plasma DPP-IV Inhibition (%) 4 h) it was 85%; at plasma DPP-IV (6 h post dose, read-out: Plasma DPP-IV Inhibition (%) 6 h) it was 72%. The inhibition at 3 mg/kg came to 68% at plasma DPP-IV (8 h post dose, read-out: Plasma DPP-IV Inhibition (%) 8 h); 67% on plasma DPP-IV (10 h post dose, read-out: Plasma DPP-IV Inhibition (%) 10 h); 62% on plasma DPP-IV (12 h post dose, read-out: Plasma DPP-IV Inhibition (%) 12 h).
